The values below come from ChEMBL document CHEMBL1275371, “Synthesis, biological evaluation, and molecular docking studies of 2-chloropyridine derivatives possessing 1,3,4-oxadiazole moiety as potential antitumor agents” (Bioorg Med Chem, 2010).

Values after ≈ are worked out from the molar mass of the structure shown.

Sequence of Telomerase reverse transcriptase (O14746 whole entry): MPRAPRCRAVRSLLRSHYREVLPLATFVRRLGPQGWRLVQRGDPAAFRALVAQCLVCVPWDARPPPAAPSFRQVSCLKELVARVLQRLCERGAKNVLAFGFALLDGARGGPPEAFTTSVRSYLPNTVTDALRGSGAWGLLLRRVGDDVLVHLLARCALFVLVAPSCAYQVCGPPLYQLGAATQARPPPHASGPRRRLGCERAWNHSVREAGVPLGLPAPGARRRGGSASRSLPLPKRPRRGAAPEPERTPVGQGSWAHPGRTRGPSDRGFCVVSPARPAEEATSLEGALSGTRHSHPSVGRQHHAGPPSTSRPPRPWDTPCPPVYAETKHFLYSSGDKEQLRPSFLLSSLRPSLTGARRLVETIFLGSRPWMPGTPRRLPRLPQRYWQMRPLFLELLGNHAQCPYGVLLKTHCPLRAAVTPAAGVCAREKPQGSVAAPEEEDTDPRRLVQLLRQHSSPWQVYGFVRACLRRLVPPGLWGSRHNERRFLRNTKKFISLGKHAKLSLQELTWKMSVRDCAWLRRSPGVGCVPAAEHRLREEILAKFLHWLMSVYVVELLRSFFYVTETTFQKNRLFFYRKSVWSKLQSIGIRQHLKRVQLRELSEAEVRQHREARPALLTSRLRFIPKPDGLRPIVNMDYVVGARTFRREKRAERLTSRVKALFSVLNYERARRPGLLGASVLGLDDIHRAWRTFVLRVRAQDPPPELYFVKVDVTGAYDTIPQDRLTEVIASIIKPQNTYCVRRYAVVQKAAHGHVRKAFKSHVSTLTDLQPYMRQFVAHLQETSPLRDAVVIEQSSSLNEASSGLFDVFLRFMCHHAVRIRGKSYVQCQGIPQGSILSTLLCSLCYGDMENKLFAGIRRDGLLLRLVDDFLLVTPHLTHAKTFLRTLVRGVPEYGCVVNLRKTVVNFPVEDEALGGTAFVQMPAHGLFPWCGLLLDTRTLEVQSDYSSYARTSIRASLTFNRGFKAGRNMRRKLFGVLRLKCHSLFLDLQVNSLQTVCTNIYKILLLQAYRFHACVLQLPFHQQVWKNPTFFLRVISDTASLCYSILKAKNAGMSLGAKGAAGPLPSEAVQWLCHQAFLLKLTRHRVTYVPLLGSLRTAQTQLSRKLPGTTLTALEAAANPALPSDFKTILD

One test deals with SGC-7901. In words: Antiproliferative activity against human SGC7901 cells after 48 hrs by MTT assay. It is filed as functional, cell-based. As to conditions: SGC-7901, 48 h.
For `Cc1ccccc1-c1nnc(SCc2ccc(Cl)nc2)o1`, the IC50 came to 8.51 µg/mL (≈ 26.8 µM).

For `Oc1ccc(-c2nnc(SCc3ccc(Cl)nc3)o2)cc1`, the IC50 is over 20 µg/mL.

Compound `CN(C)c1ccc(-c2nnc(SCc3ccc(Cl)nc3)o2)cc1` returned an IC50 of 8.9 µg/mL (≈ 25.7 µM).

As to `CCOc1ccc(-c2nnc(SCc3ccc(Cl)nc3)o2)cc1`, 4.97 µg/mL (≈ 14.3 µM) corresponded to half-maximal inhibition (IC50).

Compound `Clc1ccc(CSc2nnc(-c3cccs3)o2)cn1` registered an IC50 of 15.1 µg/mL (≈ 48.7 µM).

In the case of `CCOc1ccccc1-c1nnc(SCc2ccc(Cl)nc2)o1`, the half-maximal inhibitory concentration (IC50) stood at 10.3 µg/mL (≈ 29.6 µM).

`Clc1ccc(CSc2nnc(-c3ccccn3)o2)cn1` returned a concentration for half-maximal inhibition (IC50) of 12.6 µg/mL (≈ 41.3 µM).

On to `O=c1[nH]cc(F)c(=O)[nH]1` [FLUOROURACIL], for which half-maximal inhibition (IC50) was put at 7.36 µg/mL (≈ 56.6 µM).

`Nc1ccc(-c2nnc(SCc3ccc(Cl)nc3)o2)cc1` had an IC50 of 8.48 µg/mL (≈ 26.6 µM).

`COc1ccc(-c2nnc(SCc3ccc(Cl)nc3)o2)cc1OC`: the IC50 stood at 4.48 µg/mL (≈ 12.3 µM).

As for `COc1ccc(-c2nnc(SCc3ccc(Cl)nc3)o2)cc1`, the midpoint of inhibition, the IC50, lay at 3.5 µg/mL (≈ 10.5 µM).

`Clc1ccc(CSc2nnc(-c3cccc4ccccc34)o2)cn1`: 2.56 µg/mL (≈ 7.24 µM) corresponded to half-maximal inhibition (IC50).

In the case of `Clc1ccc(CSc2nnc(-c3ccccc3Cl)o2)cn1`, the midpoint of inhibition, the IC50, lay at 13.4 µg/mL (≈ 39.8 µM).

In turn, `CC(C)c1ccc(-c2nnc(SCc3ccc(Cl)nc3)o2)cc1` returned an IC50 of 4.32 µg/mL (≈ 12.5 µM).

Turning to `Fc1ccccc1-c1nnc(SCc2ccc(Cl)nc2)o1`, the IC50 was found to be 9.12 µg/mL (≈ 28.3 µM).

Take `Clc1ccc(CSc2nnc(-c3ccco3)o2)cn1`: it took 14.3 µg/mL (≈ 48.7 µM) to reach half-maximal inhibition (IC50).

In the case of `COc1ccccc1-c1nnc(SCc2ccc(Cl)nc2)o1`, the half-inhibitory concentration (IC50) was 8.2 µg/mL (≈ 24.6 µM).

`COc1ccc(-c2nnc(SCc3ccc(Cl)nc3)o2)c(O)c1`: the midpoint of inhibition, the IC50, lay at 1.61 µg/mL (≈ 4.6 µM).

Regarding `COc1cc(-c2nnc(SCc3ccc(Cl)nc3)o2)cc(OC)c1OC`, the IC50 was 10.2 µg/mL (≈ 25.9 µM).

Regarding `Cc1ccc(-c2nnc(SCc3ccc(Cl)nc3)o2)cc1`, the IC50 turned out to be 3.62 µg/mL (≈ 11.4 µM).

`Clc1ccc(-c2nnc(SCc3ccc(Cl)nc3)o2)cc1` came in with an IC50 of 8.62 µg/mL (≈ 25.5 µM).

Regarding `Fc1ccc(-c2nnc(SCc3ccc(Cl)nc3)o2)cc1`, the IC50 stood at 3.67 µg/mL (≈ 11.4 µM).

Another test concerns the target Telomerase reverse transcriptase (Homo sapiens, UniProt O14746). The test can be described thus: Inhibition of telomerase in human SGC7901 cells by TRAP assay. It is filed as cell-based, SGC-7901.
Details: not given
In turn, `Clc1ccc(CSc2nnc(-c3cccc4ccccc34)o2)cn1` displayed an IC50 of 4.2 µM.

As for `COc1ccc(-c2nnc(SCc3ccc(Cl)nc3)o2)c(O)c1`, it took 2.3 µM to reach half-maximal inhibition (IC50).
